Tests used:
[1] = target: p38 MAPKα isoform (MAPK14) (Homo sapiens (Human), UniProt Q16539); assay: p38 MAPKα enzyme inhibition (FRET, Z-LYTE), Method 1; format: biochemical; details: Method 1 (Table 4a1)
[2] = system: Differentiated U937 cells; assay: (l) Cell viability: MTT assay; format: cell-based, human; details: 1 μg/mL
In short: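 Differentiated U937 cells were exposed to compound at 1 or 10 μg/mL either 4 h in 5% FCS RPMI1640 or 24 h in 10% FCS RPMI1640, then given MTT for 1 h, DMSO-solubilised and read at 550 nm. Percent viability loss versus 0.5% DMSO vehicle; apparent gains appear negative.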

Sequence of p38 MAPKα isoform (MAPK14) (Q16539 whole entry, canonical isoform): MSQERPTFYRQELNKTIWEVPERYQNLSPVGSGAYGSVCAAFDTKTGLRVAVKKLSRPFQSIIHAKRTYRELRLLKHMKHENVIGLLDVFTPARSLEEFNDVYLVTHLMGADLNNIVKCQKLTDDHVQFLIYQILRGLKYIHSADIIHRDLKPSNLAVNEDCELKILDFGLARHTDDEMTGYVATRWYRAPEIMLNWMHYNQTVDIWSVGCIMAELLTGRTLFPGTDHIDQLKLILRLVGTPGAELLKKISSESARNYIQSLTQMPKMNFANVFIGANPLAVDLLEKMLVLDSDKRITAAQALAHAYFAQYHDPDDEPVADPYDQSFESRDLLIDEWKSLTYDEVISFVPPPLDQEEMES

Row | Compound | IC50 [1] | Cell viability at time point in d-U937 cells 4 h [2] | Cell viability at time point in d-U937 cells 24 h [2]
1 | Cc1ccc(-n2nc(C(C)(C)C)cc2NC(=O)Nc2ccc(Oc3ccnc(Nc4cccc(C(N)=O)c4)n3)c3ccccc23)cc1 [Example 2, 3-((4-((4-(3-(3-(tert-Butyl)-1-(p-tolyl)-1H-pyrazol-5-yl)ureido)naphthalen-1-yl)oxy)pyrimidin-2-yl)amino)benzamide] | 27 nM | −ve (−ve and +ve indicate that the value is below and above respectively, the no significant effect threshold, defined as 30% inhibition at 1 μg/mL at the time point indicated.) | −ve (−ve and +ve indicate that the value is below and above respectively, the no significant effect threshold, defined as 30% inhibition at 1 μg/mL at the time point indicated.)
2 | Cc1ccc(-n2nc(C(C)(C)C)cc2NC(=O)Nc2ccc(Oc3ccnc(Nc4cccc(C(=O)N5CCOCC5)c4)n3)c3ccccc23)cc1 [Example 27, 1-(3-(tert-butyl)-1-(p-tolyl)-1H-pyrazol-5-yl)-3-(4-((2-((3-(morpholine-4-carbonyl)phenyl)amino)pyrimidin-4-yl)oxy)naphthalen-1-yl)urea] | 17 nM | −ve (−ve and +ve indicate that the value is below and above respectively, the no significant effect threshold, defined as 30% inhibition at 1 μg/mL at the time point indicated.) | −ve (−ve and +ve indicate that the value is below and above respectively, the no significant effect threshold, defined as 30% inhibition at 1 μg/mL at the time point indicated.)
3 | COc1cc(Nc2nccc(Oc3ccc(NC(=O)Nc4cc(C(C)C)nn4-c4ccc(C)cc4)c4ccccc34)n2)cc(C(=O)N2CCOCC2)c1 [Example 12, 1-(3-Isopropyl-1-(p-tolyl)-1H-pyrazol-5-yl)-3-(4-((2-((3-methoxy-5-(morpholine-4-carbonyl)phenyl)amino)pyrimidin-4-yl)oxy)naphthalen-1-yl)urea] | 6 nM | −ve (−ve and +ve indicate that the value is below and above respectively, the no significant effect threshold, defined as 30% inhibition at 1 μg/mL at the time point indicated.) | −ve (−ve and +ve indicate that the value is below and above respectively, the no significant effect threshold, defined as 30% inhibition at 1 μg/mL at the time point indicated.)
4 | COc1ccc(-n2nc(C(C)C)cc2NC(=O)Nc2ccc(Oc3ccnc(Nc4cc(OC)cc(C(=O)NCCO)c4)n3)c3ccccc23)cc1 [Example 65, N-(2-hydroxyethyl)-3-((4-((4-(3-(3-isopropyl-1-(4-methoxyphenyl)-1H-pyrazol-5-yl)ureido)naphthalen-1-yl)oxy)pyrimidin-2-yl)amino)-5-methoxybenzamide] | 23 nM | −ve (−ve and +ve indicate that the value is below and above respectively, the no significant effect threshold, defined as 30% inhibition at 1 μg/mL at the time point indicated.) | −ve (−ve and +ve indicate that the value is below and above respectively, the no significant effect threshold, defined as 30% inhibition at 1 μg/mL at the time point indicated.)
5 | COc1ccc(-n2nc(C(C)(C)C)cc2NC(=O)Nc2ccc(Oc3ccnc(Nc4cc(OC)cc(C(N)=O)c4)n3)c3ccccc23)cc1 [Example 41, 3-((4-((4-(3-(3-(tert-butyl)-1-(4-methoxyphenyl)-1H-pyrazol-5-yl)ureido)naphthalen-1-yl)oxy)pyrimidin-2-yl)amino)-5-methoxybenzamide] | 50 nM | −ve (−ve and +ve indicate that the value is below and above respectively, the no significant effect threshold, defined as 30% inhibition at 1 μg/mL at the time point indicated.) | −ve (−ve and +ve indicate that the value is below and above respectively, the no significant effect threshold, defined as 30% inhibition at 1 μg/mL at the time point indicated.)
6 | Cc1ccc(-n2nc(C(C)C)cc2NC(=O)Nc2ccc(Oc3ccnc(Nc4cc(C)cc(C(=O)NCCN5CCOCC5)c4)n3)c3ccccc23)cc1 [Example 44, 3-((4-((4-(3-(3-isopropyl-1-(p-tolyl)-1H-pyrazol-5-yl)ureido)naphthalen-1-yl)oxy)pyrimidin-2-yl)amino)-5-methyl-N-(2-morpholinoethyl)benzamide] | < 1 nM | −ve (−ve and +ve indicate that the value is below and above respectively, the no significant effect threshold, defined as 30% inhibition at 1 μg/mL at the time point indicated.) | −ve (−ve and +ve indicate that the value is below and above respectively, the no significant effect threshold, defined as 30% inhibition at 1 μg/mL at the time point indicated.)
7 | COc1cc(C(=O)NCCN(C)C)ccc1Nc1nccc(Oc2ccc(NC(=O)Nc3cc(C(C)C)nn3-c3ccc(C)cc3)c3ccccc23)n1 [Example 35, N-(2-(dimethylamino)ethyl)-4-((4-((4-(3-(3-isopropyl-1-(p-tolyl)-1H-pyrazol-5-yl)ureido)naphthalen-1-yl)oxy)pyrimidin-2-yl)amino)-3-methoxybenzamide] | < 1 nM | −ve (−ve and +ve indicate that the value is below and above respectively, the no significant effect threshold, defined as 30% inhibition at 1 μg/mL at the time point indicated.) | −ve (−ve and +ve indicate that the value is below and above respectively, the no significant effect threshold, defined as 30% inhibition at 1 μg/mL at the time point indicated.)
8 | Cc1ccc(-n2nc(C(C)(C)C)cc2NC(=O)Nc2ccc(Oc3ccnc(Nc4cccc(C(=O)NCCN(C)C)c4)n3)c3ccccc23)cc1 [Example 18, 3-((4-((4-(3-(3-(tert-butyl)-1-(p-tolyl)-1H-pyrazol-5-yl)ureido)naphthalen-1-yl)oxy)pyrimidin-2-yl)amino)-N-(2-(dimethylamino)ethyl)benzamide] | 12 nM | −ve (−ve and +ve indicate that the value is below and above respectively, the no significant effect threshold, defined as 30% inhibition at 1 μg/mL at the time point indicated.) | −ve (−ve and +ve indicate that the value is below and above respectively, the no significant effect threshold, defined as 30% inhibition at 1 μg/mL at the time point indicated.)
9 | COc1ccc(Nc2nccc(Oc3ccc(NC(=O)Nc4cc(C(C)C)nn4-c4ccc(C)cc4)c4ccccc34)n2)cc1C(=O)NCCN1CCOCC1 [Example 70, 5-((4-((4-(3-(3-isopropyl-1-(p-tolyl)-1H-pyrazol-5-yl)ureido)naphthalen-1-yl)oxy)pyrimidin-2-yl)amino)-2-methoxy-N-(2-morpholinoethyl)benzamide] | 5 nM | −ve (−ve and +ve indicate that the value is below and above respectively, the no significant effect threshold, defined as 30% inhibition at 1 μg/mL at the time point indicated.) | −ve (−ve and +ve indicate that the value is below and above respectively, the no significant effect threshold, defined as 30% inhibition at 1 μg/mL at the time point indicated.)
10 | Cc1ccc(-n2nc(C(C)(C)C)cc2NC(=O)Nc2ccc(Oc3ccnc(Nc4cccc(C(=O)NCCN5CCN(C)CC5)c4)n3)c3ccccc23)cc1 [Example 25, 3-((4-((4-(3-(3-(tert-butyl)-1-(p-tolyl)-1H-pyrazol-5-yl)ureido)naphthalen-1-yl)oxy)pyrimidin-2-yl)amino)-N-(2-(4-methylpiperazin-1-yl)ethyl)benzamide] | 13 nM | −ve (−ve and +ve indicate that the value is below and above respectively, the no significant effect threshold, defined as 30% inhibition at 1 μg/mL at the time point indicated.) | −ve (−ve and +ve indicate that the value is below and above respectively, the no significant effect threshold, defined as 30% inhibition at 1 μg/mL at the time point indicated.)
11 | Cc1ccc(-n2nc(C(C)(C)C)cc2NC(=O)Nc2ccc(Oc3ccnc(Nc4cccc(C(=O)N(C)C)c4)n3)c3ccccc23)cc1 [Example 26, 3-((4-((4-(3-(3-(tert-butyl)-1-(p-tolyl)-1H-pyrazol-5-yl)ureido)naphthalen-1-yl)oxy)pyrimidin-2-yl)amino)-N,N-dimethylbenzamide] | 12 nM | −ve (−ve and +ve indicate that the value is below and above respectively, the no significant effect threshold, defined as 30% inhibition at 1 μg/mL at the time point indicated.) | −ve (−ve and +ve indicate that the value is below and above respectively, the no significant effect threshold, defined as 30% inhibition at 1 μg/mL at the time point indicated.)
12 | Cc1ccc(-n2nc(C(C)(C)C)cc2NC(=O)Nc2ccc(Oc3ccnc(Nc4cc(C)cc(C(N)=O)c4)n3)c3ccccc23)cc1 [Example 40, 3-((4-((4-(3-(3-(tert-butyl)-1-(p-tolyl)-1H-pyrazol-5-yl)ureido)naphthalen-1-yl)oxy)pyrimidin-2-yl)amino)-5-methylbenzamide] | 52 nM | −ve (−ve and +ve indicate that the value is below and above respectively, the no significant effect threshold, defined as 30% inhibition at 1 μg/mL at the time point indicated.) | −ve (−ve and +ve indicate that the value is below and above respectively, the no significant effect threshold, defined as 30% inhibition at 1 μg/mL at the time point indicated.)
13 | Cc1ccc(-n2nc(C(C)(C)C)cc2NC(=O)Nc2ccc(Oc3ccnc(Nc4cccc(C(=O)NCCN5CCOCC5)c4)n3)c3ccccc23)cc1 [Example 3, 3-((4-((4-(3-(3-(tert-Butyl)-1-(p-tolyl)-1H-pyrazol-5-yl)ureido)naphthalen-1-yl)oxy)pyrimidin-2-yl)amino)-N-(2-morpholinoethyl)benzamide] | 7 nM | −ve (−ve and +ve indicate that the value is below and above respectively, the no significant effect threshold, defined as 30% inhibition at 1 μg/mL at the time point indicated.) | −ve (−ve and +ve indicate that the value is below and above respectively, the no significant effect threshold, defined as 30% inhibition at 1 μg/mL at the time point indicated.)
